Test results reported in patent US7923204B2, “Forward mutation assay based on 5-fluorouracil resistance” (priority 2003, dated 2011).
Counter-ions that a name gives are not always drawn. Like-named read-outs stand apart in the source and are kept apart here.

Legend:
Salmonella = settings: cited from earlier work
micronucleus = settings: cited from earlier work
[1] = system: sister chromatid exchange; settings: cited from earlier work
chromosome aberrations = settings: cited from earlier work
FU100 [2] = settings: for Lowest Positive Dose: lowest dose tested giving a positive response
Experimental: Briefly, in order to practice the disclosed mutation assay one-ml aliquots of exponentially growing bacteria are exposed to the test agent for two hours in the presence and absence of a metabolic activation system, such as a mammalian (i.e., rat, hamster or human) liver homogenate (S9-fraction or liver microsomal enzymes). The aliquots are then diluted, allowed to grow for 3 hours, and assessed for treatment-related toxicity/inhibition by optical density. The cultures are subsequently diluted a second time and grown overnight to permit full recovery from toxicity and to allow expression of the FU^R phenotype. Samples of the cultures are then plated in 384-well microtiter dishes in the presence of 2 μg/ml 5-FU and the pH-sensitive indicator bromcresol purple. Three days later positive wells containing FU^R colonies are detected by their yellow color and enumerated. Treated cultures are then compared to control plates to determine genotoxic activity.
For each mutation experiment, two frozen 1-ml aliquots of FU100 were quickly thawed in a 37° C. water bath, pelleted by centrifugation, washed to remove the DMSO, and suspended in 35 mL of MinE medium. The culture was shaken for approximately 1 hour at 37° C. until the optical density at 600 nm (OD600) reached the target density of 0.3. A 16-ml aliquot of culture was added to each of two 50-ml tubes containing 3.6 ml of a NADPH-generating system (5.6 mM glucose-6-phosphate, 4.5 mM NADP+, 5 mM sucrose, 110 mM Na2HPO4, 37 mM KCl, and 9 mM MgCl2) and either 0.4 ml rat liver S-9 or an equal volume of sodium phosphate buffer. Aliquots of these mixtures were distributed into three 12-well cluster dishes (one for exposure with S-9, one for exposure without S-9, one for controls with and without S-9), and exposed to test compounds as 1-ml aliquots for 2 hour as outlined in FIG. 1.
Following treatment, the 1-ml aliquots were transferred into 9 ml of warm MinE medium in a 50 ml tube and incubated at 37° C. on a rotary wheel for 3 hours. Next, 20 ml of medium was added to each culture tube and 0.25 ml aliquots were transferred to a 96-well plate for OD600 measurements to assess toxicity (OD Day 1). […] Bulk cultures were then incubated overnight in the dark at 30° C. to permit recovery from toxicity and to allow time for the test cells to express the FU^R phenotype.
The next day, OD600 was again assessed to adjust cell number plated on 5-FU plates (OD Day 2; 100 μl of the culture diluted with 150 μl MinE medium for OD600 measurements). For plating, a 35 μl aliquot of each culture was added to 31.4 mL of MinE medium with 2 μg/ml of 5-FU and 10 μg/ml of bromcresol purple. The mixture was then dispersed into a 384-well plate (75 μl/well) and placed at 37° C. for 3 days in a humidified incubator.
The data obtained for both survival (OD day 1), relative number of cells plated (OD day 2), and number of positive wells were imported into an Excel template.
Table 8 summarizes the criteria for positive result in 5-FU assay using the FU100 tester strain described and claimed herein. […] A positive compound was defined when two or more doses met the aforementioned criteria.

mouse lymphoma = settings: cited from earlier work
FU100 [3] = system: FU100
[4] = in the presence of S9 activation (+), approximate, first dose with greater than 50% survival by optical density on Day 1
[5] = without S9 activation (−), approximate, first dose with greater than 50% survival by optical density on Day 1
[6] = NTP Results Report 12 Aug. 2002 or cited reference (footnotes f, g, i, j)
[7] = NTP Results Report 12 Aug. 2002
[8] = in the presence of S9 activation (+), FU100, 2 h exposure
[9] = without S9 activation (−), FU100, 2 h exposure
[10] = in the presence of S9 activation (+)

Row | SMILES | NTP Results: SA = Salmonella (Salmonella) | NTP Results: MN = micronucleus (micronucleus) | NTP Results: SC = sister chromatid exchange [1] | NTP Results: CA = chromosome aberrations (chromosome aberrations) | Results (5-FU assay) (FU100 [2]) | response in the 5-FU Assay (in words) (FU100 [2]) | NTP Results: ML = mouse lymphoma (mouse lymphoma) | LD50 (FU100 [3]; [4]) [µg/mL] | LD50 (FU100 [3]; [5]) [µg/mL] | NTP Results: SA = Salmonella (Salmonella; [6]) | NTP Results: SC = sister chromatid exchange [1, 7] | NTP Results: CA = chromosome aberrations (chromosome aberrations; [7]) | Results (5-FU assay) (FU100 [2]; [8]) | Results (5-FU assay) (FU100 [2]; [9]) | Lowest Positive Dose (FU100 [2]; without S9 activation (−)) [µg/mL] | NTP Results: ML = mouse lymphoma (mouse lymphoma; [7]) | NTP Results: MN = micronucleus (micronucleus; [7]) | Lowest Positive Dose (FU100 [2]; [10]) [µg/mL] | response in the 5-FU Assay (in words) (FU100 [2]; text and figure legend (FIG. 6), with or without S9) | LD50 (FU100 [3]; Salmonella typhimurium) [µg/mL]
1 | CCCCC(CC)COC(=O)c1ccccc1C(=O)OCC(CC)CCCC (stereo not drawn) [Di (2-ethylhexyl) phthalate] | (SA−, CA−, SC+−?, ML−, MN?) | (SA−, CA−, SC+−?, ML−, MN?) | (SA−, CA−, SC+−?, ML−, MN?) | (SA−, CA−, SC+−?, ML−, MN?) | Neg | negative/non-toxic | (SA−, CA−, SC+−?, ML−, MN?) | >5000 | >5000 |  |  |  |  |  |  |  |  |  |  | 
2 | Nc1ccc([N+](=O)[O-])cc1O [2-Amino-5-nitrophenol] |  |  |  |  |  |  |  | >150 | >300 | (SA+, CA+, SC+, ML+) | (SA+, CA+, SC+, ML+) | (SA+, CA+, SC+, ML+) | Neg | Pos | 2.8 | (SA+, CA+, SC+, ML+) |  |  |  | 
3 | COc1ccc(O)c(C(C)(C)C)c1 [Butylated Hydroxyanisole] |  |  |  |  |  |  |  | >30 | >30 | (SA−, MN−) |  |  | Neg | Neg |  |  | (SA−, MN−) |  |  | 
4 | COC(=O)[C@H]1[C@H]2C[C@@H]3c4[nH]c5cc(OC)ccc5c4CCN3C[C@H]2C[C@@H](OC(=O)c2cc(OC)c(OC)c(OC)c2)[C@@H]1OC [Reserpine] |  |  |  |  |  |  |  | >1500 | >1500 | − | − |  | Neg | Neg |  | − | − |  |  | 
5 | CN(C)[C@@H]1C(O)=C(C(N)=O)C(=O)[C@@]2(O)C(O)=C3C(=O)c4c(O)cccc4[C@@](C)(O)[C@H]3C[C@@H]12 [Tetracycline HCl] |  |  |  |  | Neg |  |  | >0.1 | >0.1 | − | − | − |  |  |  |  |  |  |  | 
6 | CC(C)CON=O [Isobutyl Nitrite] |  |  |  |  | Pos | positive compounds in toxic concentrations |  |  |  | (SA+, CA+, SC+, MN+) | (SA+, CA+, SC+, MN+) | (SA+, CA+, SC+, MN+) |  |  |  |  | (SA+, CA+, SC+, MN+) |  |  | 
7 | Cl.Nc1c2ccccc2nc2ccccc12.O [9-Aminoacridine•HCl•H2O] |  |  |  |  |  |  |  | >9 | >9 | (SA+, CA+, SC+) | (SA+, CA+, SC+) | (SA+, CA+, SC+) | Pos | Pos | 16 |  |  | 16 | positive compounds in toxic concentrations | 
8 | OCCO [Ethylene Glycol] | (SA−, CA−, SC−, ML−) |  | (SA−, CA−, SC−, ML−) | (SA−, CA−, SC−, ML−) | Neg |  | (SA−, CA−, SC−, ML−) |  |  |  |  |  |  |  |  |  |  |  |  | >5000
9 | Oc1ccc(Cl)cc1Cl [2,4-Dichlorophenol] |  |  |  |  |  |  |  |  |  |  | + | − | Neg | Neg |  | + |  |  |  | 
10 | C[S+](C)[O-] [Dimethyl Sulfoxide] |  |  |  |  |  |  |  | >5000 | >5000 | (SA−, CA−, SC−) | (SA−, CA−, SC−) | (SA−, CA−, SC−) | Neg | Neg |  |  |  |  |  | 
11 | C=CCc1ccc2c(c1)OCO2 [Safrole] | (SA−, CA−, SC+ ML+) |  | (SA−, CA−, SC+ ML+) | (SA−, CA−, SC+ ML+) | Neg |  | (SA−, CA−, SC+ ML+) | >50 | >60 |  |  |  |  |  |  |  |  |  |  | 
12 | Oc1ccccc1 [Phenol] | (SA−, CA+, SC+, ML+) |  | (SA−, CA+, SC+, ML+) | (SA−, CA+, SC+, ML+) | Neg | negative/toxic | (SA−, CA+, SC+, ML+) |  |  |  |  |  |  |  |  |  |  |  |  | 
13 | Oc1cccc2cccnc12 [8-Hydroxyquinoline] | (SA+, CA+^w, SC+, ML+, MN−) | (SA+, CA+^w, SC+, ML+, MN−) | (SA+, CA+^w, SC+, ML+, MN−) | (SA+, CA+^w, SC+, ML+, MN−) |  | positive compounds in toxic concentrations | (SA+, CA+^w, SC+, ML+, MN−) |  |  |  |  |  |  |  |  |  |  |  |  | 
14 | Cc1ccc2cc3c(ccc4ccccc43)c3c2c1CC3 [20-Methylcholanthrene] |  |  |  |  |  |  |  | >50 | >50 | + | + | − | Pos | Pos | 5 |  |  | 0.2 |  | 
15 | CC/C(=C(/CC)c1ccc(O)cc1)c1ccc(O)cc1 [Diethylstilbestrol] | (SA−, CA+, SC−, ML+) |  |  |  | Neg |  |  |  |  |  | − | + |  |  |  | + |  |  |  | 
